Where two headings read alike, the source gives them in different places.

For this experiment, the target named is Nav1.6 (Homo sapiens, UniProt Q9UQD0). The experiment in a line: Nav two-pulse protocol, IonWorks Quattro electrophysiology. It is filed as cell-based. The following applies: -120 mV to 0 mV, compound incubated 300 s. Here is the method:
Compound Plate Preparation
Supplied compounds were sent as Assay Ready Plates, with 2 μL per well of compound in DMSO at 300× the final assay concentrations as described above and in the project proposal. All assay plates are stored at in a −80° C. freezer.
On the day of the assay, 198 μL of external solution was added to the appropriate assay plate and mixed thoroughly. This provided a 1:100 dilution. A further 1:3 dilution occurred upon addition to the cells in the IonWorks, giving a 1:300 dilution in total.
On each assay plate, at least 8 wells were reserved for vehicle control (0.3% DMSO) and at least 8 wells for each positive control specific to the cell line tested. The positive controls were tested in an 8-point dose response with 3-fold dilutions to determine an IC50 value for each run. The positive control compounds are outlined below.
Ion Channel Positive Control & Concentrations
Nav1.6/1.2 Lidocaine: 8, 3-fold dilutions starting at 100 μM
Electrophysiological Recording Solutions
The solutions for recording currents were are follows:
Amphotericin B was used to obtain electrical access to the cell interior at a final concentration of 200 μg/ml in internal recording solution.
Experimental Protocols & Data Analysis
Nav currents were evoked by stepping from a holding potential of −120 mV to 0 mV for 2.5 s (pulse 1), followed by a 5 ms inter-pulse interval, and stepping from a holding potential of −120 mV to 0 mV for 20 ms (pulse 2). The voltage protocol was applied (Pre), compounds added, incubated for 300 seconds, and the voltage protocol was applied a final time (Post) on the IonWorks Quattro.
The parameters measured were the maximum inward current evoked on stepping to 0 mV from the 1st and 2nd pulse. All data were filtered for seal quality, seal drop, and current amplitude. The peak current amplitude (Peak) was calculated before (Pre) and after (Post) compound addition to the amount of block was assessed by dividing the Post-compound current amplitude by the Pre-compound current amplitude. These procedures were implemented for the 1st and 2nd pulse.

Chain of Nav1.6 (Q9UQD0 whole entry): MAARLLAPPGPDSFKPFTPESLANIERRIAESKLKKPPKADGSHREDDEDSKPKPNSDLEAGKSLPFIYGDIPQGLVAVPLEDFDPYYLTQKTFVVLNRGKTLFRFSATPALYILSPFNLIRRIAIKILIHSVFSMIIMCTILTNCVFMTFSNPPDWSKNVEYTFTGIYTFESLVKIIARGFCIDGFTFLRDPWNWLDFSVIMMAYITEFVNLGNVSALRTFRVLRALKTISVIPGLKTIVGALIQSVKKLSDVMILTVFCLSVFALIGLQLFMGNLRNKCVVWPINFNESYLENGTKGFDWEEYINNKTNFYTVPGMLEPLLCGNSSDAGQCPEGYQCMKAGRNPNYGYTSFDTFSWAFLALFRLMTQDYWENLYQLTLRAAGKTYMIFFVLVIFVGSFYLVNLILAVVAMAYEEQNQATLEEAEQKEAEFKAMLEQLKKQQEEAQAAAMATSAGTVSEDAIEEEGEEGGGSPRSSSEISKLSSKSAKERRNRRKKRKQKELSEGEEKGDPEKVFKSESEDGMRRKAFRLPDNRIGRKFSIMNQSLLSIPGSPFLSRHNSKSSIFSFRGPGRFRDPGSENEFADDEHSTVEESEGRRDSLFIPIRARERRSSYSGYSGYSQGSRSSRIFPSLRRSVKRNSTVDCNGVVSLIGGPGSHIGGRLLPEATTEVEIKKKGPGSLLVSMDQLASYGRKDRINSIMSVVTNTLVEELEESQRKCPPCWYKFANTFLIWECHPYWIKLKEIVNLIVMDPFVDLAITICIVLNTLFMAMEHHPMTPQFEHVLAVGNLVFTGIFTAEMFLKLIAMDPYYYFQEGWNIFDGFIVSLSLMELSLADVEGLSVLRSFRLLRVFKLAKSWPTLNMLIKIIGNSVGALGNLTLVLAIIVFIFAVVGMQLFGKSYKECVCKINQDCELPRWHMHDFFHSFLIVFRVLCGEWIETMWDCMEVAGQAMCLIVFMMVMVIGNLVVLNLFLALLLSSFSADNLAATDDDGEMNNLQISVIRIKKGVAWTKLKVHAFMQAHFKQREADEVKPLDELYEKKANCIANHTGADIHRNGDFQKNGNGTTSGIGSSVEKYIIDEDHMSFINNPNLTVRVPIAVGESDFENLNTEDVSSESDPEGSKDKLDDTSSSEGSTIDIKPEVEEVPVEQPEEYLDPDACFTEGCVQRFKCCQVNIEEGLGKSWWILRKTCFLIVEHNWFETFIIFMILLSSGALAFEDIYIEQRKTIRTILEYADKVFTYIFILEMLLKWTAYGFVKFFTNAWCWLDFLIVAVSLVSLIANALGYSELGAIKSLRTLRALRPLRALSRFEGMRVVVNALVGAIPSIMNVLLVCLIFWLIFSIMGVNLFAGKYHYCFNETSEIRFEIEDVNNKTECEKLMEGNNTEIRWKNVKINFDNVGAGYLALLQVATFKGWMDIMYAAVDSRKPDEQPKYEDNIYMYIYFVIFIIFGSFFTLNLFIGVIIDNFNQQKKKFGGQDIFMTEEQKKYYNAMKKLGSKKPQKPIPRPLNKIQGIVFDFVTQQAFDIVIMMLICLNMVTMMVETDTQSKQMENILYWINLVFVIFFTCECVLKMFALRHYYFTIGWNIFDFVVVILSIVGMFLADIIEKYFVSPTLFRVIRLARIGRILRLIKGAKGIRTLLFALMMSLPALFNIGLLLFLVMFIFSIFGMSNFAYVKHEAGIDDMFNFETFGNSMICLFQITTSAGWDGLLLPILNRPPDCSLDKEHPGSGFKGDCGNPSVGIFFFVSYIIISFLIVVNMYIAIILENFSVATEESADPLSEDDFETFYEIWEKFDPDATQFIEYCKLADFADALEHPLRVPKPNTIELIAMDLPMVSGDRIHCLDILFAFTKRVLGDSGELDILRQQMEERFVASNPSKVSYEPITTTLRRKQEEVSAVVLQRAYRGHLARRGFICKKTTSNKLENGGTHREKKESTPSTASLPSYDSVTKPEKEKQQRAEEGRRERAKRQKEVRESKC

With `Cc1cccc(Oc2cccc(CN3CCC(C)(C(=O)NCc4ccccn4)C3)c2)c1` (stereo not drawn) [Compound 45, 3-Methyl-1-(3-m-tolyloxy-benzyl)-pyrrolidine-3-carboxylic acid (pyridin-2-ylmethyl)-amide], the IC50 (read-out: Nav1.6 Tonic) was more than 20 µM and the IC50 (read-out: Nav1.6 inac) was more than 5 µM.

As for `CC(C)CSc1cccc(CN2CCC(C(=O)OCc3ccccn3)C2)c1` (stereo not drawn) [Compound 46, 1-(3-Isobutylsulfanyl-benzyl)-pyrrolidine-3-carboxylic acid pyridin-2-ylmethyl ester], the IC50 is, setting by setting: (read-out: Nav1.6 Tonic) more than 20 µM; (read-out: Nav1.6 inac) 1 to 5 µM.

On to `CC(C)CS(=O)(=O)c1cccc(CN2CCC(C(=O)OCc3ccccn3)C2)c1` (stereo not drawn) [Compound 47, 1-[3-(2-Methyl-propane-1-sulfonyl)-benzyl]-pyrrolidine-3-carboxylic acid pyridin-2-ylmethyl ester], for which the IC50 was more than 20 µM (read-out: Nav1.6 Tonic) and 1 to 5 µM (read-out: Nav1.6 inac).

As for `CC(C)COc1cccc(CN2CCC(c3noc(-c4ccccn4)n3)C2)c1` (stereo not drawn) [Compound 48, 2-{3-[1-(3-Isobutoxy-benzyl)-pyrrolidin-3-yl]-[1,2,4]oxadiazol-5-yl}-pyridine], the IC50 is more than 20 µM (read-out: Nav1.6 Tonic) and 1 to 5 µM (read-out: Nav1.6 inac).

`COc1cccnc1-c1nc(C2CCN(Cc3cccc(OCC(C)C)c3)C2)no1` (stereo not drawn) [Compound 49, 2-{3-[1-(3-Isobutoxy-benzyl)-pyrrolidin-3-yl]-[1,2,4]oxadiazol-5-yl}-3-methoxy-pyridine]: the IC50 reads like this: (read-out: Nav1.6 Tonic) more than 20 µM; (read-out: Nav1.6 inac) 1 to 5 µM.

With `CC(C)COc1cccc(CN2CCC(c3noc(-c4ncccc4F)n3)C2)c1` (stereo not drawn) [Compound 50, 3-Fluoro-2-{3-[1-(3-isobutoxy-benzyl)-pyrrolidin-3-yl]-[1,2,4]oxadiazol-5-yl}-pyridine], the IC50 by setting is: (read-out: Nav1.6 Tonic) more than 20 µM; (read-out: Nav1.6 inac) more than 5 µM.

Turning to `Cc1cccnc1-c1nc(C2CCN(Cc3cccc(OCC(C)C)c3)C2)no1` (stereo not drawn) [Compound 51, 2-{3-[1-(3-Isobutoxy-benzyl)-pyrrolidin-3-yl]-[1,2,4]oxadiazol-5-yl}-3-methyl-pyridine], the IC50 (read-out: Nav1.6 Tonic) was more than 20 µM and the IC50 (read-out: Nav1.6 inac) is 1 to 5 µM.

Regarding `COc1ccnc(-c2nc(C3CCN(Cc4cccc(OCC(C)C)c4)C3)no2)c1` (stereo not drawn) [Compound 52, 2-{3-[1-(3-Isobutoxy-benzyl)-pyrrolidin-3-yl]-[1,2,4]oxadiazol-5-yl}-4-methoxy-pyridine], the IC50 by setting is: (read-out: Nav1.6 Tonic) more than 20 µM; (read-out: Nav1.6 inac) 1 to 5 µM.

As to `CC(C)COc1cccc(CN2CCC(c3noc(-c4cc(Cl)ccn4)n3)C2)c1` (stereo not drawn) [Compound 53, 4-Chloro-2-{3-[1-(3-isobutoxy-benzyl)-pyrrolidin-3-yl]-[1,2,4]oxadiazol-5-yl}-pyridine], the IC50 runs as follows: (read-out: Nav1.6 Tonic) more than 20 µM; (read-out: Nav1.6 inac) 1 to 5 µM.

Turning to `COc1ccc(-c2nc(C3CCN(Cc4cccc(OCC(C)C)c4)C3)no2)nc1` (stereo not drawn) [Compound 54, 2-{3-[1-(3-Isobutoxy-benzyl)-pyrrolidin-3-yl]-[1,2,4]oxadiazol-5-yl}-5-methoxy-pyridine], the IC50 was more than 20 µM (read-out: Nav1.6 Tonic) and 1 to 5 µM (read-out: Nav1.6 inac).

For the molecule `Cc1ccc(-c2nc(C3CCN(Cc4cccc(OCC(C)C)c4)C3)no2)nc1` (stereo not drawn) [Compound 55, 2-{3-[1-(3-Isobutoxy-benzyl)-pyrrolidin-3-yl]-[1,2,4]oxadiazol-5-yl}-5-methyl-pyridine], the IC50 is more than 20 µM (read-out: Nav1.6 Tonic) and 1 to 5 µM (read-out: Nav1.6 inac).

For the molecule `COc1cccc(-c2nc(C3CCN(Cc4cccc(OCC(C)C)c4)C3)no2)n1` (stereo not drawn) [Compound 56, 2-{3-[1-(3-Isobutoxy-benzyl)-pyrrolidin-3-yl]-[1,2,4]oxadiazol-5-yl}-6-methoxy-pyridine], the IC50 reads like this: (read-out: Nav1.6 Tonic) more than 20 µM; (read-out: Nav1.6 inac) 1 to 5 µM.

Consider `CC(C)COc1cccc(CN2CCC(c3noc(Cc4ccccn4)n3)C2)c1` (stereo not drawn) [Compound 57, 2-{3-[1-(3-Isobutoxy-benzyl)-pyrrolidin-3-yl]-[1,2,4]oxadiazol-5-ylmethyl}-pyridine], for which the IC50 (read-out: Nav1.6 Tonic) was more than 20 µM and the IC50 (read-out: Nav1.6 inac) was 1 to 5 µM.

With `CC(C)COc1cccc(CN2CCC(c3noc(-c4cc(Br)ccn4)n3)C2)c1` (stereo not drawn) [Compound 58, 4-Bromo-2-{3-[1-(3-isobutoxy-benzyl)-pyrrolidin-3-yl]-[1,2,4]oxadiazol-5-yl}-pyridine], the IC50 (read-out: Nav1.6 Tonic) was more than 20 µM and the IC50 (read-out: Nav1.6 inac) is more than 5 µM.

Take `CC(C)COc1cccc(CN2CCC(c3noc(-c4ccc(F)cn4)n3)C2)c1` (stereo not drawn) [Compound 59, 5-Fluoro-2-{3-[1-(3-isobutoxy-benzyl)-pyrrolidin-3-yl]-[1,2,4]oxadiazol-5-yl}-pyridine]: the IC50 was more than 20 µM (read-out: Nav1.6 Tonic) and more than 5 µM (read-out: Nav1.6 inac).

On to `CC(C)COc1cccc(CN2CCC(n3cc(-c4ccccn4)nn3)C2)c1` (stereo not drawn) [Compound 60, 2-{1-[1-(3-Isobutoxy-benzyl)-pyrrolidin-3-yl]-1H-[1,2,3]triazol-4-yl}-pyridine], for which the IC50 was more than 20 µM (read-out: Nav1.6 Tonic) and 1 to 5 µM (read-out: Nav1.6 inac).

Regarding `Cc1cccc(-c2cn(C3CCN(Cc4cccc(OCC(C)C)c4)C3)nn2)n1` (stereo not drawn) [Compound 61, 2-{1-[1-(3-Isobutoxy-benzyl)-pyrrolidin-3-yl]-1H-[1,2,3]triazol-4-yl}-6-methyl-pyridine], the IC50 runs as follows: (read-out: Nav1.6 Tonic) more than 20 µM; (read-out: Nav1.6 inac) more than 5 µM.

For the molecule `COc1cccc(-c2cn(C3CCN(Cc4cccc(OCC(C)C)c4)C3)nn2)n1` (stereo not drawn) [Compound 62, 2-{1-[1-(3-Isobutoxy-benzyl)-pyrrolidin-3-yl]-1H-[1,2,3]triazol-4-yl}-6-methoxy-pyridine], the IC50 (read-out: Nav1.6 Tonic) is more than 20 µM and the IC50 (read-out: Nav1.6 inac) is 1 to 5 µM.

Consider `CC(C)COc1cccc(CN2CCC(n3cc(-c4cccc(Br)n4)nn3)C2)c1` (stereo not drawn) [Compound 63, 2-Bromo-6-{1-[1-(3-isobutoxy-benzyl)-pyrrolidin-3-yl]-1H-[1,2,3]triazol-4-yl}-pyridine], for which the IC50 (read-out: Nav1.6 Tonic) is more than 20 µM and the IC50 (read-out: Nav1.6 inac) is more than 5 µM.

`CC(C)COc1cccc(CN2CCC(c3nnc(CO)o3)C2)c1` (stereo not drawn) [Compound 64, {5-[1-(3-Isobutoxy-benzyl)-pyrrolidin-3-yl]-[1,3,4]oxadiazol-2-yl}-methanol]: the IC50 is, setting by setting: (read-out: Nav1.6 Tonic) more than 20 µM; (read-out: Nav1.6 inac) 1 to 5 µM.

For `COc1ccccc1CNC(=O)C1CCN(Cc2cccc(Oc3ccccc3)c2)C1` (stereo not drawn) [Compound 65, 1-(3-Phenoxy-benzyl)-pyrrolidine-3-carboxylic acid 2-methoxy-benzylamide], the IC50 is more than 20 µM (read-out: Nav1.6 Tonic) and less than 1 µM (read-out: Nav1.6 inac).

As for `COc1ccc(CNC(=O)C2CCN(Cc3cccc(Oc4ccccc4)c3)C2)cc1` (stereo not drawn) [Compound 66, 1-(3-Phenoxy-benzyl)-pyrrolidine-3-carboxylic acid 4-methoxy-benzylamide], the IC50 reads like this: (read-out: Nav1.6 Tonic) 10 to 20 µM; (read-out: Nav1.6 inac) less than 1 µM.

On to `O=C(NCc1ccc(OC(F)(F)F)cc1)C1CCN(Cc2cccc(Oc3ccccc3)c2)C1` (stereo not drawn) [Compound 67, 1-(3-Phenoxy-benzyl)-pyrrolidine-3-carboxylic acid 4-trifluoromethoxy-benzylamide], for which the IC50 by setting is: (read-out: Nav1.6 Tonic) 10 to 20 µM; (read-out: Nav1.6 inac) less than 1 µM.

For the molecule `O=C(NCc1ccc(Cl)cc1)C1CCN(Cc2cccc(Oc3ccccc3)c2)C1` (stereo not drawn) [Compound 68, 1-(3-Phenoxy-benzyl)-pyrrolidine-3-carboxylic acid 4-chloro-benzylamide], the IC50 runs as follows: (read-out: Nav1.6 Tonic) 10 to 20 µM; (read-out: Nav1.6 inac) 1 to 5 µM.

As for `O=C(NCc1cccc(Cl)c1)C1CCN(Cc2cccc(Oc3ccccc3)c2)C1` (stereo not drawn) [Compound 69, 1-(3-Phenoxy-benzyl)-pyrrolidine-3-carboxylic acid 3-chloro-benzylamide], the IC50 (read-out: Nav1.6 Tonic) was more than 20 µM and the IC50 (read-out: Nav1.6 inac) is less than 1 µM.

For `O=C(NCc1cccc(C(F)(F)F)c1)C1CCN(Cc2cccc(Oc3ccccc3)c2)C1` (stereo not drawn) [Compound 70, 1-(3-Phenoxy-benzyl)-pyrrolidine-3-carboxylic acid 3-trifluoromethyl-benzylamide], the IC50 was 10 to 20 µM (read-out: Nav1.6 Tonic) and 1 to 5 µM (read-out: Nav1.6 inac).

For the molecule `O=C(NCc1ccc(C(F)(F)F)cc1)C1CCN(Cc2cccc(Oc3ccccc3)c2)C1` (stereo not drawn) [Compound 71, 1-(3-Phenoxy-benzyl)-pyrrolidine-3-carboxylic acid 4-trifluoromethyl-benzylamide], the IC50 (read-out: Nav1.6 Tonic) lay within 10 to 20 µM and the IC50 (read-out: Nav1.6 inac) lay within 1 to 5 µM.

In the case of `O=C(NCc1ccccc1C(F)(F)F)C1CCN(Cc2cccc(Oc3ccccc3)c2)C1` (stereo not drawn) [Compound 72, 1-(3-Phenoxy-benzyl)-pyrrolidine-3-carboxylic acid 2-trifluoromethyl-benzylamide], the IC50 is 10 to 20 µM (read-out: Nav1.6 Tonic) and 1 to 5 µM (read-out: Nav1.6 inac).

Consider `O=C(NCc1ccccc1F)C1CCN(Cc2cccc(Oc3ccccc3)c2)C1` (stereo not drawn) [Compound 73, 1-(3-Phenoxy-benzyl)-pyrrolidine-3-carboxylic acid 2-fluoro-benzylamide], for which the IC50 is, setting by setting: (read-out: Nav1.6 Tonic) 10 to 20 µM; (read-out: Nav1.6 inac) 1 to 5 µM.

With `O=C(NCc1cccc(F)c1)C1CCN(Cc2cccc(Oc3ccccc3)c2)C1` (stereo not drawn) [Compound 74, 1-(3-Phenoxy-benzyl)-pyrrolidine-3-carboxylic acid 3-fluoro-benzylamide], the IC50 reads like this: (read-out: Nav1.6 Tonic) 10 to 20 µM; (read-out: Nav1.6 inac) 1 to 5 µM.
